Source: patent US20030202935A1, “Composition and formulations and their use as nociceptic, anti-axniolytic and anabolic agents” (priority 2000, published 2003)

Assays:
[1] = system: Intracellular Adenosine; set-up: species or system Fischer 344 rats; settings: rat, in vivo, po
Protocol: Folinic acid (50 mg/kg) was administered intraperitoneally once daily for fourteen days. […] Hearts were removed from animals and flash frozen in liquid nitrogen within 10 seconds of death. Liver and lungs were removed en bloc and flash frozen within 30 seconds of death. Brain tissue was subsequently dissected.

[2] = cited from earlier work

Compound	adenosine levels in the brain [1]	half life [2]
Nc1nc(=O)c2c([nH]1)NCC(CNc1ccc(C(=O)N[C@@H](CCC(=O)O)C(=O)O)cc1)N2C=O (mixture of isomers) [Folinic Acid (F.A.), folinic acid]	dramatic increase	–
Nc1ncnc2c1ncn2[C@@H]1O[C@H](CO)[C@@H](O)[C@H]1O [adenosine]	–	about a second
